According to article PMC11571207, “Stereorandomized Oncocins with Preserved Ribosome Binding and Antibacterial Activity” (Journal of Medicinal Chemistry, 2024):
Values after ≈ are worked out from the molar mass of the structure shown. Where two headings read alike, the source gives them in different places.

Assays:
[1] = system: P. aeruginosa PA14 4.18 (pmrB); details: supplement CSV; full MH pH 7.4
[2] = system: P. aeruginosa PA14 2P4 (pmrB); assay: microbe, parasite or virus in culture; details: Pseudomonas aeruginosa
Description: (§1) Minimum inhibitory concentration assay
(§2) Antimicrobial activity was assayed against P. aeruginosa PAO1, K. pneumoniae NCTC418, E. coli W3110, A. baumannii ATCC 19606, methicillin-resistant S. aureus COL (MRSA), and for selected peptides on P. aeruginosa PA14 and the polymyxin-B-resistant derivative PA14 2P4, as well as the clinical isolates ZEM-1A and ZEM9A, K. pneumoniae OXA-48, S. aureus Newman, Enterobacter cloacae and Burkholderia cenocepacia. The minimal inhibitory concentration (MIC) was determined by using broth microdilution method. A colo ny of bacteria was picked and grown in Luria-Bertani (LB) medium overnight at 37°C. For E. coli BW25113 sbmA::kan the medium was supplemented with 25 mg/L of kanamycin. The next day, the culture was then regrown in LB medium to log phase (OD600 = 0.6 to 0.8), which lasted approximately 4 h, and diluted to an OD600 of 0.022 in the desired medium. Stock solutions of 1 mg/mL of the samples were prepared in sterilized milliQ water and diluted to the beginning concentration of 64 μg/mL in 300 μL Mueller Hinton (MH)-medium. The diluted samples were added to first well of 96-well microtiter plate (TPP, untreated, Faust Laborbedarf, AG, Schaffhausen) and diluted serially by ½. Finally, 4 μL of the bacterial suspension was inoculated into the sample solutions (150 μL/well) with a final inoculation of about 5∙10^5 CFU/mL. The plates were then incubated at 37°C for 15-18h. For each assay, sterility (broth only) and growth control (broth with bacterial inoculum, without antibiotics) were checked with two columns in the plate. The next day, 15 μL of 3-(4,5-dimethylthiazol-2-yl)-2,5-diphenyltetrazolium bromide (MTT) was added to each well of the plate, such a way that MIC was defined as the lowest concentration of the peptide that inhibited visible growth of the tested

P. aeruginosa ZEM-1A = assay: microbe, parasite or virus in culture; details: Pseudomonas aeruginosa, ZEM1A
Description: as §1, §2

P. aeruginosa ZEM9A = assay: microbe, parasite or virus in culture; details: Pseudomonas aeruginosa, ZEM9A
Description: as §1, §2

P. aeruginosa PA14 = assay: microbe, parasite or virus in culture; details: for MIC: Pseudomonas aeruginosa
Description: as §1, §2

K. pneumoniae OXA-48 = assay: microbe, parasite or virus in culture; details: Klebsiella pneumoniae
Description: as §1, §2

E. cloacae = assay: microbe, parasite or virus in culture; details: Enterobacter cloacae
Description: as §1, §2

P. aeruginosa PAO1 = assay: microbe, parasite or virus in culture; details: for MIC: Pseudomonas aeruginosa
Outline: (§3)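 Read-out was visible growth after MTT addition, the MIC being the lowest inhibitory peptide concentration. Bacteria grown to log phase in LB were exposed in MH medium to peptide from 64 μg/mL in twofold dilutions for 15-18h at 37°C.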

S. aureus COL (MRSA) = assay: microbe, parasite or virus in culture; details: for MIC: Staphylococcus aureus, MRSA
Outline: as §3

A. baumannii ATCC19606 = assay: microbe, parasite or virus in culture; details: Acinetobacter baumannii
Outline: as §3

K. pneumoniae NCTC 418 = assay: microbe, parasite or virus in culture; details: Klebsiella pneumoniae
Outline: as §3

E. coli W3110 = assay: microbe, parasite or virus in culture; details: Escherichia coli
Outline: as §3

`CC[C@H]1OC(=O)[C@H](C)[C@@H](O[C@H]2C[C@@](C)(OC)[C@@H](O)[C@H](C)O2)[C@H](C)[C@@H](O[C@@H]2O[C@H](C)C[C@H](N(C)C)[C@H]2O)[C@](C)(O)C[C@@H](C)CN(C)[C@H](C)[C@@H](O)[C@]1(C)O` [AZM, azithromycin, reference compound] was tested, and the “MIC P. aeruginosa PA14 4.18” value [1] was 32 mg/L (≈ 42.7 µM), the MIC ([2]; PA14, pH 7.4, read-out: MIC P. aeruginosa PA14 2P4 (pmrB), 12.5% MHB, polymyxin B resistant strain, 12.5% MHB pH 7.4, 16–20 h at 37 °C) was 16 mg/L (≈ 21.4 µM) and the MIC ([2]; PA14, pH 7.4, read-out: MIC P. aeruginosa PA14 2P4 (pmrB), full MHB, polymyxin B resistant strain, full MHB pH 7.4, 16–20 h at 37 °C) was 32 to 64 mg/L (≈ 42.7 to 85.4 µM). The MIC ([2]; PA14, pH 7.4, read-out: MIC P. aeruginosa PA14 2P4, supplement CSV, 12.5% MH pH 7.4) was 16 mg/L (≈ 21.4 µM), the MIC ([2]; PA14, pH 7.4, read-out: MIC P. aeruginosa PA14 2P4, supplement CSV, full MH pH 7.4) was 32 to 64 mg/L (≈ 42.7 to 85.4 µM) and the MIC (P. aeruginosa ZEM-1A; pH 7.4, read-out: MIC P. aeruginosa ZEM-1A, 12.5% MHB, clinical isolate, 12.5% MHB pH 7.4, 16–20 h at 37 °C, cells marked c: single measurement (in duplicates)) was less than 0.5 mg/L. It also gave an MIC (P. aeruginosa ZEM-1A; pH 7.4, read-out: MIC P. aeruginosa ZEM-1A, full MHB, clinical isolate, full MHB pH 7.4, 16–20 h at 37 °C, cells marked c: single measurement (in duplicates)) of 64 mg/L (≈ 85.4 µM), an MIC (P. aeruginosa ZEM-1A; pH 7.4, read-out: MIC P. aeruginosa ZEM-1A, supplement CSV, 12.5% MH pH 7.4) of less than 0.5 mg/L and an MIC (P. aeruginosa ZEM-1A; pH 7.4, read-out: MIC P. aeruginosa ZEM-1A, supplement CSV, full MH pH 7.4) of 64 mg/L (≈ 85.4 µM). For the same compound, the MIC (P. aeruginosa ZEM9A; pH 7.4, read-out: MIC P. aeruginosa ZEM9A, 12.5% MHB, clinical isolate, 12.5% MHB pH 7.4, 16–20 h at 37 °C) was 32 to 64 mg/L (≈ 42.7 to 85.4 µM), the MIC (P. aeruginosa ZEM9A; pH 7.4, read-out: MIC P. aeruginosa ZEM9A, full MHB, clinical isolate, full MHB pH 7.4, 16–20 h at 37 °C) was greater than 64 mg/L and the MIC (P. aeruginosa ZEM9A; pH 7.4, read-out: MIC P. aeruginosa ZEM9A, supplement CSV, 12.5% MH pH 7.4) was 32 to 64 mg/L (≈ 42.7 to 85.4 µM). The MIC (P. aeruginosa ZEM9A; pH 7.4, read-out: MIC P. aeruginosa ZEM9A, supplement CSV, full MH pH 7.4) was greater than 64 mg/L, the MIC (P. aeruginosa PA14; PA14, pH 7.4, read-out: MIC P. aeruginosa PA14) was 32 mg/L (≈ 42.7 µM) and the MIC (P. aeruginosa PA14; PA14, pH 7.4, read-out: MIC P. aeruginosa PA14, 12.5% MHB) was 32 mg/L (≈ 42.7 µM). The MIC (P. aeruginosa PA14; PA14, pH 7.4, read-out: MIC P. aeruginosa PA14, full MHB) was 32 mg/L (≈ 42.7 µM), the “MIC P. aeruginosa PA14” value (P. aeruginosa PA14; supplement CSV, full MH pH 7.4) was 32 mg/L (≈ 42.7 µM) and the MIC (K. pneumoniae OXA-48; OXA48, pH 7.4, read-out: MIC K. pneumoniae OXA-48, 12.5% MHB, carbapenem-resistant, 12.5% MHB pH 7.4, 16–20 h at 37 °C) was 8 mg/L (≈ 10.7 µM). For the same compound, the MIC (K. pneumoniae OXA-48; OXA48, pH 7.4, read-out: MIC K. pneumoniae OXA-48, full MHB, carbapenem-resistant, full MHB pH 7.4, 16–20 h at 37 °C) was 8 to 16 mg/L (≈ 10.7 to 21.4 µM), the MIC (K. pneumoniae OXA-48; OXA48, pH 7.4, read-out: MIC K. pneumoniae OXA-48, supplement CSV, 12.5% MH pH 7.4) was 8 mg/L (≈ 10.7 µM) and the MIC (K. pneumoniae OXA-48; OXA48, pH 7.4, read-out: MIC K. pneumoniae OXA-48, supplement CSV, full MH pH 7.4) was 8 to 16 mg/L (≈ 10.7 to 21.4 µM). For the same compound, the MIC (E. cloacae; pH 7.4, read-out: MIC E. cloacae, 12.5% MHB, 12.5% MHB pH 7.4, 16–20 h at 37 °C) was 8 mg/L (≈ 10.7 µM), the MIC (E. cloacae; pH 7.4, read-out: MIC E. cloacae, full MHB, full MHB pH 7.4, 16–20 h at 37 °C) was 16 mg/L (≈ 21.4 µM) and the MIC (E. cloacae; pH 7.4, read-out: MIC E. cloacae, supplement CSV, 12.5% MH pH 7.4) was 8 mg/L (≈ 10.7 µM). It also gave an MIC (E. cloacae; pH 7.4, read-out: MIC E. cloacae, supplement CSV, full MH pH 7.4) of 16 mg/L (≈ 21.4 µM), an MIC (P. aeruginosa PAO1; PAO1, pH 7.4, read-out: MIC P. aeruginosa PAO1) of 32 mg/L (≈ 42.7 µM) and an MIC (P. aeruginosa PAO1; PAO1, read-out: MIC P. aeruginosa, 12.5% MHB) of 32 mg/L (≈ 42.7 µM). For the same compound, the MIC (P. aeruginosa PAO1; PAO1, read-out: MIC P. aeruginosa, Full MHB) was 32 mg/L (≈ 42.7 µM), the “MIC P. aeruginosa PAO1” value (P. aeruginosa PAO1; supplement CSV, full MH pH 7.4) was 32 mg/L (≈ 42.7 µM) and the MIC (S. aureus COL (MRSA); pH 7.4, read-out: MIC S. aureus COL (MRSA)) was less than 0.5 mg/L. For the same compound, the MIC (S. aureus COL (MRSA); read-out: MIC S. aureus, 12.5% MHB) was less than 0.5 mg/L, the MIC (S. aureus COL (MRSA); read-out: MIC S. aureus, Full MHB) was less than 0.5 mg/L and the “MIC S. aureus COL (MRSA)” value (S. aureus COL (MRSA); supplement CSV, 12.5% MH pH 7.4) was less than 0.5 mg/L. For the same compound, the MIC (A. baumannii ATCC19606; ATCC19606, pH 7.4, read-out: MIC A. baumannii ATCC19606, supplement CSV, 12.5% MH pH 7.4) was 32 mg/L (≈ 42.7 µM), the MIC (A. baumannii ATCC19606; ATCC19606, pH 7.4, read-out: MIC A. baumannii ATCC19606, supplement CSV, full MH pH 7.4) was 4 mg/L (≈ 5.34 µM) and the MIC (A. baumannii ATCC19606; ATCC19606, read-out: MIC A. baumannii, 12.5% MHB, A. baumannii ATCC19606, 12.5% Müller–Hinton medium, 16–20 h at 37 °C) was 32 mg/L (≈ 42.7 µM). For the same compound, the MIC (A. baumannii ATCC19606; ATCC19606, read-out: MIC A. baumannii, Full MHB, A. baumannii ATCC19606, full Müller–Hinton medium, 16–20 h at 37 °C) was 4 mg/L (≈ 5.34 µM), the MIC (K. pneumoniae NCTC 418; NCTC418, pH 7.4, read-out: MIC K. pneumoniae NCTC418, supplement CSV, 12.5% MH pH 7.4) was 1 mg/L (≈ 1.34 µM) and the MIC (K. pneumoniae NCTC 418; NCTC418, pH 7.4, read-out: MIC K. pneumoniae NCTC418, supplement CSV, full MH pH 7.4) was less than 0.5 mg/L. It also gave an MIC (K. pneumoniae NCTC 418; NCTC418, read-out: MIC K. pneumoniae, 12.5% MHB, K. pneumoniae NCTC 418, 12.5% Müller–Hinton medium, 16–20 h at 37 °C) of 1 mg/L (≈ 1.34 µM), an MIC (K. pneumoniae NCTC 418; NCTC418, read-out: MIC K. pneumoniae, Full MHB, K. pneumoniae NCTC 418, full Müller–Hinton medium, 16–20 h at 37 °C) of less than 0.5 mg/L and an MIC (E. coli W3110; W3110, pH 7.4, read-out: MIC E. coli W3110, supplement CSV, 12.5% MH pH 7.4) of 2 mg/L (≈ 2.67 µM). For the same compound, the MIC (E. coli W3110; W3110, pH 7.4, read-out: MIC E. coli W3110, supplement CSV, full MH pH 7.4) was less than 0.5 mg/L, the MIC (E. coli W3110; W3110, read-out: MIC E. coli, 12.5% MHB, E. coli W3110, 12.5% Müller–Hinton medium, 16–20 h at 37 °C, broth microdilution) was 2 mg/L (≈ 2.67 µM) and the MIC (E. coli W3110; W3110, read-out: MIC E. coli, Full MHB, E. coli W3110, full Müller–Hinton medium, 16–20 h at 37 °C, broth microdilution) was less than 0.5 mg/L.
